Source: PubChem BioAssay (NCI)
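Results reflect a 48-hour exposure of cells in 96-well plates to compound at five concentrations. TGI: total growth inhibition.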 Where a SMILES comes first, the peptide text is derived from it. The star is where a group is joined. Cbz = O=C(OCc1ccccc1)*; NHNH2 = NN*

Columns and labels:
Assay in all cases: inhibition of tumour cell growth, NCI panel, 48 h
CAKI-1 renal = test system: CAKI-1 renal
HCC-2998 colon = test system: HCC-2998 colon
IGROV1 ovarian = test system: IGROV1 ovarian
MDA-MB-231 breast = test system: MDA-MB-231 breast
MDA-N = test system: MDA-N
MOLT-4 leukemia = test system: MOLT-4 leukemia
NCI-H460 lung = test system: NCI-H460 lung
SK-MEL-28 melanoma = test system: SK-MEL-28 melanoma
SN12C renal = test system: SN12C renal
TK-10 renal = test system: TK-10 renal
U251 CNS = test system: U251 CNS

Structure (SMILES)	TGI (CAKI-1 renal)	TGI (HCC-2998 colon)	TGI (IGROV1 ovarian)	TGI (MDA-MB-231 breast)	TGI (MDA-N)	TGI (MOLT-4 leukemia)	TGI (NCI-H460 lung)	TGI (SK-MEL-28 melanoma)	TGI (SN12C renal)	TGI (TK-10 renal)	TGI (U251 CNS)
O=c1c(-c2ccc(Cl)cc2)nnc2n(Cc3ccccc3)c3ccccc3n12	59.8 µM	> 100 µM	> 100 µM	67.8 µM	> 100 µM	> 100 µM	> 100 µM	> 100 µM	> 100 µM	61.8 µM	72.7 µM
Cc1c2ncccc2cc2oc3ccccc3c(=O)c12	> 100 µM	> 100 µM	> 100 µM	> 100 µM	> 100 µM	23.5 µM	> 100 µM	> 100 µM	> 100 µM	> 100 µM	
CC1(C)CNC(=O)C2(C=NC(C)(C)CNC(=O)C3(C=N1)CCCO3)CCCO2 (stereo unspecified)	> 10 µM	> 10 µM	> 10 µM	> 10 µM	> 10 µM	> 10 µM		> 10 µM	> 10 µM	> 10 µM	> 10 µM
COC(=O)C1=Nc2c(C)nn(-c3ccccc3)c2N=C(c2ccc([N+](=O)[O-])cc2)C1	> 10 µM	> 10 µM	> 10 µM	> 10 µM	> 10 µM	> 10 µM		> 10 µM	> 10 µM	> 10 µM	> 10 µM
Cc1nc(C)c(Cc2ccccc2)o1	> 100 µM	> 100 µM	> 100 µM	> 100 µM	> 100 µM	> 100 µM	> 100 µM	> 100 µM	> 100 µM	> 100 µM	> 100 µM
CC1(C)OCC2OC3([C@H]4OC(C)(C)O[C@@H]4CO)OC(C)(C)OC3C2O1 (stereo partly specified)	> 100 µM	> 100 µM	> 100 µM	> 100 µM	> 100 µM	> 100 µM	> 100 µM	> 100 µM	> 100 µM		> 100 µM
Nc1c(C(=O)c2ccc(Cl)cc2)[nH]c(NCc2ccccc2)c1C(=S)Nc1ccccc1	18.6 µM	1.98 µM	6.43 µM	3.91 µM	3.32 µM	6.49 µM	3.49 µM	3.22 µM	17 µM	4.25 µM	3.13 µM
Cc1nn(-c2cc(Cl)ccc2[N+](=O)[O-])c(C)c1Cl	> 100 µM	> 100 µM	> 100 µM	> 100 µM	> 100 µM	> 100 µM	> 100 µM	> 100 µM	> 100 µM	> 100 µM	> 100 µM
O=c1c2ccccc2nc(Nc2cccc(Cl)c2)n1/N=C/C=C/c1ccccc1	> 100 µM	> 100 µM	> 100 µM	> 100 µM	> 100 µM	> 100 µM	> 100 µM	> 100 µM	> 100 µM	> 100 µM	> 100 µM
COC(=O)CC(NC(=O)OCc1ccccc1)C(=O)NC(CC(=O)OC)C(=O)NC(CC(=O)OC)C(=O)NC(CC(=O)OC)C(=O)NC(CC(=O)OC)C(=O)NC(CC(=O)OC)C(=O)NN (stereo unspecified) (Cbz-D(OMe)D(OMe)D(OMe)D(OMe)D(OMe)D(OMe)-NHNH2; configuration not given here)		> 100 µM	> 100 µM	> 100 µM	> 100 µM	> 100 µM	> 100 µM	> 100 µM	> 100 µM	> 100 µM	> 100 µM
COc1cc(/C=C\C(=O)O)ccc1OCc1ccccc1	> 100 µM	> 100 µM	> 100 µM	> 100 µM	> 100 µM	> 100 µM	> 100 µM	> 100 µM	> 100 µM	> 100 µM	> 100 µM
CCOC(=O)C(CC#Cc1ccc(C#CCC(NC(C)=O)C(=O)OCC)cc1)NC(C)=O (stereo unspecified)	> 100 µM	> 100 µM	> 100 µM	> 100 µM	> 100 µM	> 100 µM	> 100 µM	> 100 µM	> 100 µM	> 100 µM	
CN(C)CCn1c(=O)c2ccc(NCCCN(C)CCCNc3ccc4c(=O)n(CCN(C)C)c(=O)n5c6ccc([N+](=O)[O-])cc6c(=O)c3c45)c3c(=O)c4cc([N+](=O)[O-])ccc4n(c1=O)c23	1.16 µM	0.0921 µM	0.174 µM	0.125 µM	0.22 µM		0.12 µM	0.553 µM	0.165 µM	1.52 µM	0.124 µM
COC(=O)c1ccc(C=Nc2ccc(S(N)(=O)=O)cc2)cc1	> 100 µM	> 100 µM		> 100 µM	> 100 µM	> 100 µM	> 100 µM	> 100 µM	> 100 µM	> 100 µM	> 100 µM
CCOC(=O)C(NC(=O)CC(C)C)(N1CCN(c2cc3c(cc2F)c(=O)c(C(=O)O)cn3C2CC2)CC1)C(F)(F)F (stereo unspecified)	74.5 µM	28.4 µM	37.6 µM	46.1 µM	52.3 µM	40.2 µM	> 100 µM	55.5 µM	> 100 µM	72.9 µM	> 100 µM
C=c1c(OC)c(OC)c(O)c2c1=c1cc([N+](=O)[O-])cc(OC)c1=N2	> 100 µM	> 100 µM	> 100 µM	> 100 µM	> 100 µM	> 100 µM	> 100 µM	> 100 µM	> 100 µM	> 100 µM	> 100 µM
CNC(=O)N(CCC#N)[C@H]1CCCC[C@@H]1N(C(=O)NC)c1ccccc1	> 100 µM	> 100 µM	> 100 µM	> 100 µM	> 100 µM	> 100 µM	> 100 µM	> 100 µM	> 100 µM	> 100 µM	> 100 µM
NC(=O)C(=CNC(=S)c1ccncc1)C(N)=O	> 100 µM	> 100 µM	> 100 µM	> 100 µM	> 100 µM	> 100 µM	> 100 µM		> 100 µM	> 100 µM	> 100 µM
CC1(CNCc2ccccc2)CC(CCc2ccccc2)N(C(=O)c2ccc([N+](=O)[O-])cc2)C1Cc1ccc(O)cc1 (stereo unspecified)	28.1 µM	27.1 µM	31.2 µM	24.4 µM	27.1 µM	> 100 µM	30.8 µM	> 100 µM	20.8 µM	30.9 µM	26.2 µM

Structure (SMILES)	TGI (CAKI-1 renal)	TGI (HCC-2998 colon)	TGI (IGROV1 ovarian)	TGI (MDA-MB-231 breast)	TGI (MDA-N)	TGI (MOLT-4 leukemia)	TGI (NCI-H460 lung)	TGI (SK-MEL-28 melanoma)	TGI (SN12C renal)	TGI (TK-10 renal)	TGI (U251 CNS)
CCNC(=O)C1CCCN1C(=O)C(CCCN=C(N)N)NC(=O)C(CC(C)C)NC(=O)C(Cc1c[nH]c2ccccc12)NC(=O)C(Cc1ccc(O)cc1)NC(=O)C(CO)NC(=O)C(Cc1c[nH]c2ccccc12)NC(=O)C(Cc1cnc[nH]1)NC(=O)C1CCC(=O)N1 (stereo unspecified)	> 100 µM	> 100 µM	> 100 µM	> 100 µM	> 100 µM	> 100 µM	> 100 µM		> 100 µM	> 100 µM	> 100 µM
COc1cc(I)c2c3c1OC1C34CCN(C)C(C2)C4=CC(I)C1(OC)OC (stereo unspecified)	93.8 µM	28.9 µM	54.3 µM	46.3 µM	48 µM	42.4 µM	38.7 µM	47.5 µM	31.9 µM	51.1 µM	33.9 µM
COc1ccc2c(c1)CC1=C(O2)c2ccc(OC)cc2OC1	37.1 µM	> 100 µM	> 100 µM	89.6 µM	38.4 µM	> 100 µM			44.3 µM	46.3 µM	39.9 µM
Brc1ccc2c(-c3csc(-c4c[nH]c5cc(Br)ccc45)n3)c[nH]c2c1	> 100 µM	> 100 µM	> 75.2 µM	> 70.6 µM	13.4 µM	> 62.8 µM	53.8 µM	> 100 µM	> 100 µM	> 100 µM	32.1 µM
CC(=O)OC/C=C(/C=C/CNC1CCCCC1)OC(C)=O	26.7 µM	40.3 µM	34.3 µM	27.9 µM	31.9 µM	> 100 µM	52.1 µM	30.9 µM	32.1 µM	30.6 µM	32.9 µM
O=C(Nc1ccccc1C(=O)NCCCO)/C(=C/c1ccccc1O)NC(=O)c1ccccc1	> 100 µM	> 100 µM	> 100 µM	> 59.3 µM	> 100 µM	> 100 µM	> 100 µM	> 100 µM	> 100 µM	> 100 µM	> 81.6 µM
Brc1cc2nn(-c3ccccc3)nc2c2nonc12	> 100 µM	> 100 µM	> 100 µM	> 100 µM	> 100 µM	> 100 µM	> 100 µM	> 100 µM	> 100 µM	> 100 µM	> 100 µM
Clc1ccc(OCc2nnc(CCCCCCCCc3nnc(COc4ccc(Cl)cc4)n3Nc3ccccc3)n2Nc2ccccc2)cc1	27.2 µM	> 68.7 µM	> 100 µM	> 100 µM	37.1 µM	> 100 µM	> 100 µM	> 100 µM	99 µM	> 100 µM	> 87.4 µM
COc1ccc2cc(NC(=O)N/N=C\c3ccc(Cl)cc3)ccc2c1	> 100 µM	> 100 µM	> 100 µM	> 100 µM	> 100 µM	> 100 µM	> 100 µM	> 100 µM	> 100 µM	> 100 µM	> 100 µM
CCC(=O)Oc1c2ccsc2c(OC(=O)CC)c2ccsc12	6.13 µM	3.49 µM	3.65 µM	1.27 µM	0.136 µM	> 100 µM	3.87 µM	0.353 µM	1.16 µM	5.25 µM	1.65 µM
Cc1cn([C@@H]2C[C@H]2CO)c(=O)[nH]c1=O	> 100 µM	> 100 µM	> 100 µM	> 100 µM	> 100 µM	> 100 µM	> 100 µM	> 100 µM	> 100 µM	> 100 µM	> 100 µM
COc1ccc2c(c1)CN1C(=N2)CSC1c1ccccc1Cl (stereo unspecified)	> 100 µM	29.8 µM	42.2 µM	67.5 µM	36.1 µM	19 µM	32.7 µM	26.9 µM	40.1 µM	68 µM	59.6 µM
Brc1ccc2c(-c3csc(-c4c[nH]c5ccc(Br)cc45)n3)c[nH]c2c1	9.81 µM	5.51 µM	16.4 µM	> 24.6 µM	16.6 µM	> 22.4 µM	6.89 µM	25.8 µM	18.9 µM	15.2 µM	16.5 µM
C=C1CC(C)(c2ccc(Nc3nc4ccccc4c4occc34)cc2)OC1=O (stereo unspecified)	40.3 µM	5.63 µM		6.35 µM	12.7 µM		51.5 µM	27.4 µM	4.91 µM	16.7 µM	38.9 µM
NC(N)=NS(=O)(=O)c1ccc(NC(=O)c2ccc3nc4ccccc4c(Nc4ccc(S(=O)(=O)N=C(N)N)cc4)c3c2)cc1	> 100 µM	> 100 µM	> 100 µM	> 100 µM	> 100 µM	> 100 µM	> 100 µM	> 100 µM	> 100 µM	> 100 µM	> 100 µM
c1ccc2c3c(c(N4CCOCC4)nc2c1)CCCC3	> 100 µM	> 100 µM	> 100 µM	> 100 µM	> 100 µM	> 100 µM	> 100 µM	> 100 µM	> 100 µM	> 100 µM	> 100 µM
O=C1C=CC(=O)c2c(O)c(NCCc3ccc(O)cc3)c(Cl)c(O)c21	> 10 µM	> 10 µM	> 10 µM	> 10 µM	> 10 µM	> 10 µM	> 10 µM		> 10 µM	> 10 µM	> 10 µM
Cc1cn(C(C)OCCN2C(=O)c3ccccc3C2=O)c(=O)[nH]c1=O (stereo unspecified)	> 100 µM	> 100 µM	> 100 µM	> 100 µM	> 100 µM	> 100 µM	> 100 µM	> 100 µM	> 100 µM		> 100 µM
CSc1nc2c(c(=O)n1C)N=C(c1ccccc1)[C@H](C(CC(=O)c1ccccc1)c1ccccc1)C(c1ccccc1)N2 (stereo partly specified)	> 100 µM	> 100 µM	> 100 µM	> 100 µM	> 100 µM	> 100 µM	> 100 µM	> 100 µM	> 100 µM		> 100 µM
